Assay results: article PMC3454380, “Chloroplast NADPH-Dependent Thioredoxin Reductase from Chlorella vulgaris Alleviates Environmental Stresses in Yeast Together with 2-Cys Peroxiredoxin” (PLoS ONE, 2012)

Legend:
[1] = target: T1, His-mCvNTRC (mature C. vulgaris NTRC) (Chlorella vulgaris, UniProt B9ZYY5); assay: NADPH oxidation at […] nm, coupled to His-mCvPrx and peroxide; type: biochemical; settings: 300 uM NADPH, 100 uM peroxide, 4.0 uM His-mCvNTRC, 4.0 uM His-mCvPrx, 1 mM EDTA, 50 mM Na-phosphate pH 7.0
T1 construct: gene CvNTR-C; mature form (NTR domain plus C-terminal Trx domain) without transit peptide, C-terminal His-tag, pET-29b(+), E. coli BL21(DE3)pLysS
T1 sequence (B9ZYY5 58-529): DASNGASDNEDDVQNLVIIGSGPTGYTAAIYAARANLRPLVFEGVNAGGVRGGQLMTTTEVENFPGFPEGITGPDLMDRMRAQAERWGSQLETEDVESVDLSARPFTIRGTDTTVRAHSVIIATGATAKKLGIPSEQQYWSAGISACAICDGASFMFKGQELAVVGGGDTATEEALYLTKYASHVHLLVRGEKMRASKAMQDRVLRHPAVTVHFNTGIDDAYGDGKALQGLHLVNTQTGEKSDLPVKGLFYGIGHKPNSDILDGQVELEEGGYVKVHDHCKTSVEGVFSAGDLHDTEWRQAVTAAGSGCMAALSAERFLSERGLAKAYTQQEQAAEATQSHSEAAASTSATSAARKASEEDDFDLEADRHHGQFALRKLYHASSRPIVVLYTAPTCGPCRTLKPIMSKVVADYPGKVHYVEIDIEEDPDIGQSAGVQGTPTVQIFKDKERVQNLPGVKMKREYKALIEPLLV

[2] = target: T2, His-mCvPrx (mature C. vulgaris 2-Cys Prx) (Chlorella vulgaris, UniProt K4PW22); assay: NADPH oxidation at […] nm, reconstituted with His-mCvNTRC; type: biochemical; settings: 300 uM NADPH, 4.0 uM His-mCvPrx, 4.0 uM His-mCvNTRC as reductant, 1 mM EDTA, 50 mM Na-phosphate pH 7.0
T2 construct: mature form without predicted chloroplast transit peptide, bp 161-745 of cDNA, 194 residues of 239 (46-239 if ORF starts at bp 26); His-tagged, pTrc99A, E. coli JM109, five synonymous rare-codon changes
T2 sequence (K4PW22 46-239): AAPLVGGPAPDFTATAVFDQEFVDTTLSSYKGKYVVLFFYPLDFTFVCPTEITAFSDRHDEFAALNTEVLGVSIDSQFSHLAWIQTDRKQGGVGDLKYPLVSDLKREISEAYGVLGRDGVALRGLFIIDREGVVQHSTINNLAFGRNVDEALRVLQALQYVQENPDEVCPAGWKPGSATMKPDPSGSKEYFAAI

In the case of `NC(=O)C1=CN([C@@H]2O[C@H](COP(=O)(O)OP(=O)(O)OC[C@H]3O[C@@H](n4cnc5c(N)ncnc54)[C@H](OP(=O)(O)O)[C@@H]3O)[C@@H](O)[C@H]2O)C=CC1` [NADPH], the specific activity [1] is reported as “the mCvNTRC/mCvPrx system used NADPH as a specific coenzyme to reduce peroxides”.

In the case of `O=NOO` [peroxynitrite], the specific activity ([2]; 100 uM peroxynitrite) is reported as “the mCvNTRC/mCvPrx antioxidant system could decompose ONOO^−”.

For `CC(C)(C)OO` [tert-butyl hydroperoxide], the specific activity ([2]; 100 uM t-BOOH) was “a remarkably high rate of NADPH oxidation against both H2O2 and t-BOOH”.
